Experimental data published in BindingDB's records for doi:10.1021/jm011020u (Instituto De Quimica Medica (Csic), 2002).

Experiments:
[1] = target: T1, Glycogen synthase kinase-3 beta [7-25] (Oryctolagus cuniculus, UniProt G1T8E2); test: GSK-3 Inhibition Assay; settings: 37 °C
T1 construct: 7-25
Procedure: 32P incorporation was measured with a scintillation counter. The GSK-3 beta activity was expressed in picomoles of phosphate incorporated in GS-1 per 20 min or in percentage of maximal activity.

[2] = target: cAMP-dependent protein kinase catalytic subunit alpha (Bos taurus, UniProt P00517); test: Kinase Inhibition Assay; settings: pH 7.5; 37 °C
[3] = target: Protein kinase C beta type (Rattus norvegicus, UniProt P68403); test: PKC Inhibition Assay; settings: pH 7.5; 37 °C
Procedure: Kinase activities were assayed in buffers containing substrate, enzyme, and inhibitor at 37 °C in the presence of 10 uM ATP/ [gamma-32P] ATP. 32P incorporation was measured with a scintillation counter. The IC50 is the inhibitor concentration at which a 50% of enzyme inhibition occurs.

Chain of Protein kinase C beta type (P68403 whole entry): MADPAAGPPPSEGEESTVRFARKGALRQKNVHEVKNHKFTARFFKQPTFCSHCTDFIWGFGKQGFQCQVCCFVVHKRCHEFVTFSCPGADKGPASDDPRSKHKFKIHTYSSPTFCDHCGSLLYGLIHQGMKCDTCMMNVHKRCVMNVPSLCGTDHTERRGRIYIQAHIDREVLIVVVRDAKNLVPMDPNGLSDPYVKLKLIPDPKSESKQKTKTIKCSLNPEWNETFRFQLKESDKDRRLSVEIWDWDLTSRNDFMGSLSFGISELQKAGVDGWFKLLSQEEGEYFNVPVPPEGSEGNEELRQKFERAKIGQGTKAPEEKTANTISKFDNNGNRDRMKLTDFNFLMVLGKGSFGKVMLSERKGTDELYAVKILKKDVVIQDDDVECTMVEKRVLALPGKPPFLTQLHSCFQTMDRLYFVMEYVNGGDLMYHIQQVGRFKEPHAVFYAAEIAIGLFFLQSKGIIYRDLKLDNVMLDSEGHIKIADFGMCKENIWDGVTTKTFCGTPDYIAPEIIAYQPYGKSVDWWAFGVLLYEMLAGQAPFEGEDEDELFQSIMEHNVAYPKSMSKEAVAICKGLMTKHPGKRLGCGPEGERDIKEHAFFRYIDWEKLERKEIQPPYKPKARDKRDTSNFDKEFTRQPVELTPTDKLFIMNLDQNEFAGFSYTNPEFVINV

Row | Compound | IC50 ([1]; pH 7.5) | IC50 [1] | further results
1 | CCn1sc(=O)n(Cc2ccccc2)c1=O | 7 µM | – | –
2 | O=c1sn(Cc2ccccc2)c(=O)n1Cc1ccccc1 [2,4-Dibenzyl-1,2,4-thiadiazolidine-3,5-dione] | 10 µM | – | –
3 | O=c1sn(Cc2ccccc2)c(=S)n1Cc1ccccc1 [2,4-Dibenzyl-5-oxo-1,2,4-thiadiazolidine-3-thione] | – | 10 µM | –
4 | CCn1sc(=O)n(CC)c1=O [2,4-Diethyl-1,2,4-thiadiazolidine-3,5-dione] | 25 µM | – | –
5 | CCn1sc(=O)n(CC)c1=S [2,4-diethyl-3-thioxo-1,2,4-thiadiazolidin-5-one] | – | 20 µM | –
6 | O=c1sn(-c2ccccc2)c(=S)n1-c1ccccc1 [2,4-diphenyl-5-oxo-1,2,4-thiadiazolidine-3-thione] | – | 8 µM | –
7 | CCn1c(=O)sn(C2CCCCC2)c1=O [2-Cyclohexyl-4-ethyl-1,2,4-thiadiazolidine-3,5-dione] | 10 µM | – | –
8 | CCn1sc(=N)n(-c2ccccc2)c1=O [2-Ethyl-3-oxo-4-phenyl-1,2,4-thiadiazolidin-5-imine] | – | 65 µM | –
9 | Cn1sc(=O)n(-c2cccc3ccccc23)c1=O [2-methyl-4-(1-naphthyl)-1,2,4-thiadiazolidine-3,5-dione] | – | 3 µM | –
10 | Cn1sc(=O)n(-c2ccc(C(F)(F)F)cc2)c1=O [2-methyl-4-[4-(trifluoromethyl)phenyl]-1,2,4-thiadiazolidine-3,5-dione] | – | 6 µM | –
11 | Cn1sc(=O)n(-c2ccccc2)c1=O [2-methyl-4-phenyl-1,2,4-thiadiazolidine-3,5-dione] | 2 µM | – | –
12 | Cn1sc(=O)n(-c2ccccc2Br)c1=O [4-(2-Bromophenyl)-2-methyl-1,2,4-thiadiazolidine-3,5-dione] | 6 µM | – | –
13 | Cn1sc(=O)n(-c2cccc(Br)c2)c1=O [4-(3-Bromophenyl)-2-methyl-1,2,4-thiadiazolidine-3,5-dione] | 4 µM | – | –
14 | Cn1sc(=O)n(-c2ccc(Br)cc2)c1=O [4-(4-Bromophenyl)-2-methyl-1,2,4-thiadiazolidine-3,5-dione] | 3 µM | – | –
15 | Cn1sc(=O)n(-c2ccc(Cl)cc2)c1=O [4-(4-Chlorophenyl)-2-methyl-1,2,4-thiadiazolidine-3,5-dione] | – | 4 µM | –
16 | Cn1sc(=O)n(-c2ccc(F)cc2)c1=O [4-(4-Fluorophenyl)-2-methyl-1,2,4-thiadiazolidine-3,5-dione] | – | 4 µM | –
17 | Cc1ccc(-n2c(=O)sn(C)c2=O)cc1 [4-(4-Methylphenyl)-2-methyl-1,2,4-thiadiazolidine-3,5-dione] | – | 5 µM | –
18 | CCn1sc(=O)n(Cc2ccccc2)c1=S [4-Benzyl-2-ethyl-5-oxo-1,2,4-thiadiazolidine-3-thione] | – | 6 µM | –
19 | Cn1sc(=O)n(Cc2ccccc2)c1=O [4-Benzyl-2-methyl-1,2,4-thiadiazolidine-3,5-dione] | – | – | IC50 [2]: > 100 µM; IC50 [3]: > 100 µM
20 | Cn1sc(=O)n(C2CCCCC2)c1=O [4-Cyclohexyl-2-methyl-1,2,4-thiadiazolidine-3,5-dione] | > 100 µM | – | –
21 | CCn1c(=O)sn(C)c1=O [4-Ethyl-2-methyl-1,2,4-thiadiazolidine-3,5-dione] | 5 µM | – | –
22 | CCCn1sc(=O)n(CC)c1=O [4-Ethyl-2-propyl-1,2,4-thiadiazolidine-3,5-dione] | 10 µM | – | –
23 | CCn1c(=O)sn(C(C)C)c1=O [4-ethyl-2-(propan-2-yl)-1,2,4-thiadiazolidine-3,5-dione] | 35 µM | – | –
24 | CCn1c(=S)n(C)s/c1=N\c1cccnc1 [(5Z)-4-ethyl-2-methyl-5-(pyridin-3-ylimino)-1,2,4-thiadiazolidine-3-thione] | – | 10 µM | –
25 | CCOC(=O)/N=c1\sn(C(=O)OCC)c(=S)n1-c1ccccc1 [ethyl (5Z)-5-[(ethoxycarbonyl)imino]-4-phenyl-3-sulfanylidene-1,2,4-thiadiazolidine-2-carboxylate] | – | 100 µM | –
26 | CCNC(=O)/N=c1\sn(CC)c(=O)n1-c1ccccc1 [ethyl-(2-ethyl-3-oxo-4-phenyl-1,2,4-thiadiazolidin-5-ylidene)urea] | – | 75 µM | –
